{"source": "ChEMBL document CHEMBL4219199", "about": "“Synthesis and evaluation of aminobenzothiazoles as blockers of N- and T-type calcium channels” (Bioorg Med Chem, 2018)", "key": {"[1]": {"target": "Voltage-dependent N-type calcium channel subunit alpha-1B (Homo sapiens, UniProt Q00975)", "sequence (Q00975 whole entry)": "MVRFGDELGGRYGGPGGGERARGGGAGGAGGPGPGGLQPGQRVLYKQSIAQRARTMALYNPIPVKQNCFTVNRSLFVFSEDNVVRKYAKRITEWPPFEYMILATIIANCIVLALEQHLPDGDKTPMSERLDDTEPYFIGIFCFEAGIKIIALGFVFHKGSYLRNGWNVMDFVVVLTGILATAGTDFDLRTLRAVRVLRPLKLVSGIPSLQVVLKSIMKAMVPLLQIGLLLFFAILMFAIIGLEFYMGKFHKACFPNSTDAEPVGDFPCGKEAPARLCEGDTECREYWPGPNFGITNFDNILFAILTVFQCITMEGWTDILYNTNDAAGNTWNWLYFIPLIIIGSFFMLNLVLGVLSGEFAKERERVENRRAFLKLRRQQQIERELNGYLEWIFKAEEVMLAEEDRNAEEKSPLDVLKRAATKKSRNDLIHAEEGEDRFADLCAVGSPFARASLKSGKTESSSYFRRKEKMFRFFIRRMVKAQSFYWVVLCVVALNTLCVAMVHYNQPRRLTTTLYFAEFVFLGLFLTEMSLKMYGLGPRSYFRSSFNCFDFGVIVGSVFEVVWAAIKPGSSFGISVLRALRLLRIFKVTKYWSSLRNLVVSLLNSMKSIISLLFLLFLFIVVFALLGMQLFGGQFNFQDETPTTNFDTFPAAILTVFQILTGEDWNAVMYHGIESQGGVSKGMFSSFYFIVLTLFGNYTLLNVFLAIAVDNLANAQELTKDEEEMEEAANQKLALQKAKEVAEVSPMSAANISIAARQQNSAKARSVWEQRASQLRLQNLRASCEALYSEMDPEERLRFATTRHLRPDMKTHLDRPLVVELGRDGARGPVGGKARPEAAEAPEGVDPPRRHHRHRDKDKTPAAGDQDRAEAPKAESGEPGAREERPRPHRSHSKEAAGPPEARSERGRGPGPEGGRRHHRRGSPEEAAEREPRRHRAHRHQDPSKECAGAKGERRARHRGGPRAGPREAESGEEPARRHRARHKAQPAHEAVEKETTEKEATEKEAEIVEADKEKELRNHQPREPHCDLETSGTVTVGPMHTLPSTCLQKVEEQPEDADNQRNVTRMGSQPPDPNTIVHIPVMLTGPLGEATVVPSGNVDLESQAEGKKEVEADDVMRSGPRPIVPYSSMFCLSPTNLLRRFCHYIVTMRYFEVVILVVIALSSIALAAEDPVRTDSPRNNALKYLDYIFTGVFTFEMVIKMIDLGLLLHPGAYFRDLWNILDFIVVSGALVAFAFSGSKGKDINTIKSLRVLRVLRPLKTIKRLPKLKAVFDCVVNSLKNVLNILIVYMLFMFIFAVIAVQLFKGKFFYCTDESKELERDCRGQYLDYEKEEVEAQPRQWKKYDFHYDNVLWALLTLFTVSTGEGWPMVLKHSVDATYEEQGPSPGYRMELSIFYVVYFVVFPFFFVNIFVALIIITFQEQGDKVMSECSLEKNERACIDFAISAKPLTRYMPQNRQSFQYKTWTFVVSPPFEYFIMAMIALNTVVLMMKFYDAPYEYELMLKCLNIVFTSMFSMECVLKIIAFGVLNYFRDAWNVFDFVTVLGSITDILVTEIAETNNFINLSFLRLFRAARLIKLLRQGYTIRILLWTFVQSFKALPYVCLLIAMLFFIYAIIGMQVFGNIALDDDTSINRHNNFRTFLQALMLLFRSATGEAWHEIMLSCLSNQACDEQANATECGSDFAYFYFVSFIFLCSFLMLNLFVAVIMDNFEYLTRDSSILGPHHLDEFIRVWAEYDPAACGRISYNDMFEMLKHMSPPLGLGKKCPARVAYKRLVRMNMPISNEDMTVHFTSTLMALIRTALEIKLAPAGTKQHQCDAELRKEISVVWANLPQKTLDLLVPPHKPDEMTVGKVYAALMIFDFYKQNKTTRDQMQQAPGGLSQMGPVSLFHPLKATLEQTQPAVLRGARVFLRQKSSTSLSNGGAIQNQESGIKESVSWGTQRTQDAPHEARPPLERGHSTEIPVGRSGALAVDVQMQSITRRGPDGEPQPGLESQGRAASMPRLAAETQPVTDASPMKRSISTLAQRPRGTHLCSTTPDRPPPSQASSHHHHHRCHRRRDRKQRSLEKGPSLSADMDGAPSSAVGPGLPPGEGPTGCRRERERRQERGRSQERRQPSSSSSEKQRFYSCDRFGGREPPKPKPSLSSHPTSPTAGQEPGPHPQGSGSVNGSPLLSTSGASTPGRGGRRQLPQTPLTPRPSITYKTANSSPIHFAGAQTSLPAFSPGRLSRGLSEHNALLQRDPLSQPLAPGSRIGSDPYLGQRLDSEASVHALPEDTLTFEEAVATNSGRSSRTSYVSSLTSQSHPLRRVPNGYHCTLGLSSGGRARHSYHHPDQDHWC", "test": "Inhibition of Cav2.2 in human SH-SY5Y cells assessed as decrease in KCl-induced calcium mobilization measured after 600 secs post compound addition and 300 secs post KCl addition in presence of CaV1 blocker nifedipine by calcium 4 dye-based FLIPR assay", "assay_type": "cell-based"}, "[2]": {"test": "Metabolic stability in rat plasma assessed as parent compound remaining at 120 uM after 24 hrs by HPLC analysis relative to control", "assay_type": "ADME, cell-free", "settings": "read-out: Stability"}, "[3]": {"target": "Voltage-dependent T-type calcium channel subunit alpha-1H (Homo sapiens, UniProt O95180)", "sequence (O95180 whole entry)": "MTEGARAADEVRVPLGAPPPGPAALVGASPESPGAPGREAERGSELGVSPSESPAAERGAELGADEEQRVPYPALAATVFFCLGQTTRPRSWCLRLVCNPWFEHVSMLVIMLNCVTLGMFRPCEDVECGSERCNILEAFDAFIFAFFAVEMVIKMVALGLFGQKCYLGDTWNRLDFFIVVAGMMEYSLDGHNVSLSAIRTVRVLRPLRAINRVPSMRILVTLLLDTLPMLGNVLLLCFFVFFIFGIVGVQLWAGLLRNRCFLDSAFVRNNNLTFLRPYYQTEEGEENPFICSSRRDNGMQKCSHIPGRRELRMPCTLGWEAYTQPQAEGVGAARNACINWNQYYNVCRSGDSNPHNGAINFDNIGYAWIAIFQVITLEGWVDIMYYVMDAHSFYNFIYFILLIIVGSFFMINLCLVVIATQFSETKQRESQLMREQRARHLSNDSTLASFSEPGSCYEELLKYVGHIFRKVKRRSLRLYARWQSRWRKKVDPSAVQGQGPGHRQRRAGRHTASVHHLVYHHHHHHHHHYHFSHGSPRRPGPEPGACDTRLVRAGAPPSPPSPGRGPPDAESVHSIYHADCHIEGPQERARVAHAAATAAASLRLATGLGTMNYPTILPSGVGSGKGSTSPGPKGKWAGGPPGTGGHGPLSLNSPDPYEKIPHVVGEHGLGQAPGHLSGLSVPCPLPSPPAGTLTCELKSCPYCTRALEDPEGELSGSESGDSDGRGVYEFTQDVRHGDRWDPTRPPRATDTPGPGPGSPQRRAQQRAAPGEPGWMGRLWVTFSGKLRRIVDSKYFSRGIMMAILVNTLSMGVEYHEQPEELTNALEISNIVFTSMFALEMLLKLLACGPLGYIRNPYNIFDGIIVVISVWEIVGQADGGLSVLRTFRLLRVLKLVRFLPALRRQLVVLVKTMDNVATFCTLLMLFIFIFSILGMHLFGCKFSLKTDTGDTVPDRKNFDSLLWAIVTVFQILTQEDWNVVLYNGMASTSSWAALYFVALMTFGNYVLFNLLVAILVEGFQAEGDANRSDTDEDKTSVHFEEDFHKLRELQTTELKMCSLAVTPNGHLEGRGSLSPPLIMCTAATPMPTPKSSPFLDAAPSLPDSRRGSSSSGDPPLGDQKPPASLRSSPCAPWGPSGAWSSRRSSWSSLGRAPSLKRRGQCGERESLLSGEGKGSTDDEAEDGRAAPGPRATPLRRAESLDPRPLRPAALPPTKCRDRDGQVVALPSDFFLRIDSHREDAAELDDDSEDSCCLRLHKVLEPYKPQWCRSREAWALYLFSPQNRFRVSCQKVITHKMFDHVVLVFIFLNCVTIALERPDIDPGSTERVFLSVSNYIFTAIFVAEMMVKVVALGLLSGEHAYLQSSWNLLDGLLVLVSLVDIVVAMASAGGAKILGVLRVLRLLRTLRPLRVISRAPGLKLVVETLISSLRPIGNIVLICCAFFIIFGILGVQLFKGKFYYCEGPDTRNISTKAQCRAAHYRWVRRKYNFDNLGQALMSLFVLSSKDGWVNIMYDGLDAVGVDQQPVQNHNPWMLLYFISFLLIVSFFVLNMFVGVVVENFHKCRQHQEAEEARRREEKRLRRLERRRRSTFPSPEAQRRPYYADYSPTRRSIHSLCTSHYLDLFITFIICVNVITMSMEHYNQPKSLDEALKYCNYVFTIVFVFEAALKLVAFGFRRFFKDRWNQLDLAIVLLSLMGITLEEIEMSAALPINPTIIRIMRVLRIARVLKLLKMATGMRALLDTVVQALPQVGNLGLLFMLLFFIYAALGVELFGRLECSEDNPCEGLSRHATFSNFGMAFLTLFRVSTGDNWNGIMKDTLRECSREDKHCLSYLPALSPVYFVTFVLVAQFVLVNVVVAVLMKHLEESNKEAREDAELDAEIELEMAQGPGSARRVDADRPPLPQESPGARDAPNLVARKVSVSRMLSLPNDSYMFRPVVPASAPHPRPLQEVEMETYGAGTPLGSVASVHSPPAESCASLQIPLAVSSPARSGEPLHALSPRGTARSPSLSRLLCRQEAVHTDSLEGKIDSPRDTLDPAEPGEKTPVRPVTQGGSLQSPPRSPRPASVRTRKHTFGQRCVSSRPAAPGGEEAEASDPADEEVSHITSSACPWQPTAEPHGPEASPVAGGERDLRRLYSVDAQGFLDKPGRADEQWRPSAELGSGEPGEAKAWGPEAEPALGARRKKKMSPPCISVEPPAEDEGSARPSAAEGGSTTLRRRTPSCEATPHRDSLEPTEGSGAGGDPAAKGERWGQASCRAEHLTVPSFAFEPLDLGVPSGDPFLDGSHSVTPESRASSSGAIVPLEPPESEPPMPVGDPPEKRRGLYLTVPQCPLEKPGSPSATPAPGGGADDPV", "test": "Inhibition of recombinant human Cav3.2-alpha1 expressed in HEK293T cells assessed as decrease in KCl-induced calcium mobilization measured after 600 secs post compound addition and 300 secs post KCl addition by calcium 4 dye-based FLIPR assay", "assay_type": "cell-based"}, "[4]": {"test": "Half life in rat plasma", "assay_type": "ADME, cell-free"}, "[5]": {"target": "Voltage-dependent N-type calcium channel subunit alpha-1B (Rattus norvegicus, UniProt Q02294)", "test": "Displacement of [125I]GVIA from rat brain membrane Cav2.2 after 1 hr by gamma counting method"}}, "data": [{"smiles": "N=C(N)NCCCOc1ccc(CNc2nc3ccc(Oc4ccc(C(F)(F)F)cc4)cc3s2)cc1.O=C(O)C(F)(F)F", "values": [{"measurement": "IC50", "setting": "[1]", "result": 167, "unit": "µM"}, {"measurement": "remaining at 24 h, 120 µM", "setting": "[2]", "result": 91, "unit": "%"}, {"measurement": "IC50", "setting": "[3]", "result": 195, "unit": "µM"}, {"measurement": "half-life", "setting": "[4]", "result": "> 24", "unit": "h"}]}, {"smiles": "CN(Cc1ccc(OCCCN)cc1)c1nc2ccc(Oc3ccc(C(F)(F)F)cc3)cc2s1", "values": [{"measurement": "IC50", "setting": "[1]", "result": 283, "unit": "µM"}, {"measurement": "IC50", "setting": "[3]", "result": 248, "unit": "µM"}]}, {"smiles": "CN(Cc1ccc(OCCCN)cc1)c1nc2ccc(Oc3ccc(F)cc3)cc2s1", "values": [{"measurement": "IC50", "setting": "[1]", "result": 98, "unit": "µM"}, {"measurement": "IC50", "setting": "[3]", "result": 492, "unit": "µM"}]}, {"smiles": "CN(Cc1ccc(OCCCNC(=N)N)cc1)c1nc2ccc(Oc3cccc(C(F)(F)F)c3)cc2s1.O=C(O)C(F)(F)F", "values": [{"measurement": "IC50", "setting": "[1]", "result": 202, "unit": "µM"}, {"measurement": "remaining at 24 h, 120 µM", "setting": "[2]", "result": 95, "unit": "%"}, {"measurement": "IC50", "setting": "[3]", "result": 771, "unit": "µM"}, {"measurement": "half-life", "setting": "[4]", "result": "> 24", "unit": "h"}]}, {"smiles": "CN(Cc1ccc(OCCCNC(=N)N)cc1)c1nc2ccc(Oc3ccccc3)cc2s1", "values": [{"measurement": "IC50", "setting": "[1]", "result": 113, "unit": "µM"}, {"measurement": "IC50", "setting": "[3]", "result": 498, "unit": "µM"}]}, {"smiles": "CN(Cc1ccc(OCCCN)cc1)c1nc2ccc(Oc3cccc(C(F)(F)F)c3)cc2s1.O=C(O)C(F)(F)F", "values": [{"measurement": "IC50", "setting": "[1]", "result": 77, "unit": "µM"}, {"measurement": "remaining at 24 h, 120 µM", "setting": "[2]", "result": 100, "unit": "%"}, {"measurement": "IC50", "setting": "[3]", "result": 239, "unit": "µM"}, {"measurement": "half-life", "setting": "[4]", "result": "> 24", "unit": "h"}]}, {"smiles": "NCCCOc1ccc(CN(C(=O)c2ccccc2OCCCN)c2nc3ccc(Oc4ccc(O)cc4)cc3s2)cc1", "values": [{"measurement": "EC50", "setting": "[5]", "result": 5.4, "unit": "µM"}]}, {"smiles": "N#Cc1ccc(Oc2ccc3nc(NCc4ccc(OCCCNC(=N)N)cc4)sc3c2)cc1", "values": [{"measurement": "IC50", "setting": "[1]", "result": 368, "unit": "µM"}, {"measurement": "IC50", "setting": "[3]", "result": 326, "unit": "µM"}]}, {"smiles": "NCCCOc1ccc(CNc2nc3ccc(Oc4ccc(C(F)(F)F)cc4)cc3s2)cc1", "values": [{"measurement": "IC50", "setting": "[1]", "result": 59, "unit": "µM"}, {"measurement": "IC50", "setting": "[3]", "result": 112, "unit": "µM"}]}, {"smiles": "N=C(N)NCCCOc1ccc(CNc2nc3ccc(Oc4cccc(C(F)(F)F)c4)cc3s2)cc1", "values": [{"measurement": "IC50", "setting": "[1]", "result": 130, "unit": "µM"}, {"measurement": "IC50", "setting": "[3]", "result": 270, "unit": "µM"}]}, {"smiles": "CN(C)CCCOc1ccc(CNc2nc3ccc(Oc4ccc(C#N)cc4)cc3s2)cc1", "values": [{"measurement": "IC50", "setting": "[1]", "result": 105, "unit": "µM"}, {"measurement": "IC50", "setting": "[3]", "result": 41, "unit": "µM"}]}, {"smiles": "NC(N)=NCCCOc1ccc(CNc2nc3ccc(Oc4ccccc4)cc3s2)cc1", "values": [{"measurement": "IC50", "setting": "[1]", "result": 103, "unit": "µM"}, {"measurement": "IC50", "setting": "[3]", "result": 166, "unit": "µM"}]}, {"smiles": "CN(Cc1ccc(OCCCNC(=N)N)cc1)c1nc2ccc(Oc3ccc(O)cc3)cc2s1", "values": [{"measurement": "IC50", "setting": "[1]", "result": 432, "unit": "µM"}, {"measurement": "IC50", "setting": "[3]", "result": 332, "unit": "µM"}]}, {"smiles": "CC(C)[C@H]1c2ccc(F)cc2CC[C@@]1(CCN(C)CCCc1nc2ccccc2[nH]1)OC(=O)C1CC1", "values": [{"measurement": "IC50", "setting": "[1]", "result": 7, "unit": "µM"}]}, {"smiles": "CN(Cc1ccc(OCCCNC(=N)N)cc1)c1nc2ccc(Oc3ccc(C(F)(F)F)cc3)cc2s1", "values": [{"measurement": "IC50", "setting": "[1]", "result": 185, "unit": "µM"}, {"measurement": "IC50", "setting": "[3]", "result": 212, "unit": "µM"}]}, {"smiles": "CN(Cc1ccc(OCCCN)cc1)c1nc2ccc(Oc3ccc(C#N)cc3)cc2s1", "values": [{"measurement": "IC50", "setting": "[1]", "result": 65, "unit": "µM"}, {"measurement": "IC50", "setting": "[3]", "result": 328, "unit": "µM"}]}, {"smiles": "NCCCOc1ccc(CNc2nc3ccc(Oc4ccc(F)cc4)cc3s2)cc1.O=C(O)C(F)(F)F", "values": [{"measurement": "IC50", "setting": "[1]", "result": 106, "unit": "µM"}, {"measurement": "remaining at 24 h, 120 µM", "setting": "[2]", "result": 75, "unit": "%"}, {"measurement": "IC50", "setting": "[3]", "result": 688, "unit": "µM"}, {"measurement": "half-life", "setting": "[4]", "result": "> 24", "unit": "h"}]}, {"smiles": "NCCCOc1ccccc1C(=O)N(Cc1ccc(OCCCN=C(N)N)cc1)c1nc2ccc(Oc3ccc(O)cc3)cc2s1", "values": [{"measurement": "EC50", "setting": "[5]", "result": 5.7, "unit": "µM"}]}, {"smiles": "N#Cc1ccc(Oc2ccc3nc(NCc4ccc(OCCCN)cc4)sc3c2)cc1", "values": [{"measurement": "IC50", "setting": "[1]", "result": 41, "unit": "µM"}, {"measurement": "IC50", "setting": "[3]", "result": 109, "unit": "µM"}]}, {"smiles": "CN(C)CCCOc1ccc(CNc2nc3ccc(Oc4ccc(F)cc4)cc3s2)cc1", "values": [{"measurement": "IC50", "setting": "[1]", "result": 40, "unit": "µM"}, {"measurement": "IC50", "setting": "[3]", "result": "> 1000", "unit": "µM"}]}, {"smiles": "NCCCOc1ccc(CNc2nc3ccc(Oc4ccc(O)cc4)cc3s2)cc1", "values": [{"measurement": "IC50", "setting": "[1]", "result": 205, "unit": "µM"}, {"measurement": "IC50", "setting": "[3]", "result": 300, "unit": "µM"}]}, {"smiles": "CN(Cc1ccc(OCCCN)cc1)c1nc2ccc(Oc3ccccc3)cc2s1", "values": [{"measurement": "IC50", "setting": "[1]", "result": 49, "unit": "µM"}, {"measurement": "IC50", "setting": "[3]", "result": 95, "unit": "µM"}]}, {"smiles": "CN(C)CCCOc1ccc(CN(C)c2nc3ccc(Oc4ccc(C#N)cc4)cc3s2)cc1", "values": [{"measurement": "IC50", "setting": "[1]", "result": 69, "unit": "µM"}, {"measurement": "IC50", "setting": "[3]", "result": 64, "unit": "µM"}]}, {"smiles": "CN(Cc1ccc(OCCCNC(=N)N)cc1)c1nc2ccc(Oc3ccc(F)cc3)cc2s1", "values": [{"measurement": "IC50", "setting": "[1]", "result": 100, "unit": "µM"}, {"measurement": "IC50", "setting": "[3]", "result": 521, "unit": "µM"}]}, {"smiles": "N=C(N)NCCCOc1ccc(CNc2nc3ccc(Oc4ccc(F)cc4)cc3s2)cc1", "values": [{"measurement": "IC50", "setting": "[1]", "result": 244, "unit": "µM"}, {"measurement": "IC50", "setting": "[3]", "result": 288, "unit": "µM"}]}, {"smiles": "NCCCOc1ccc(CNc2nc3ccc(Oc4ccccc4)cc3s2)cc1", "values": [{"measurement": "IC50", "setting": "[1]", "result": 218, "unit": "µM"}, {"measurement": "IC50", "setting": "[3]", "result": "> 1000", "unit": "µM"}]}, {"smiles": "CN(Cc1ccc(OCCCN)cc1)c1nc2ccc(Oc3ccc(O)cc3)cc2s1", "values": [{"measurement": "IC50", "setting": "[1]", "result": 117, "unit": "µM"}, {"measurement": "IC50", "setting": "[3]", "result": 165, "unit": "µM"}]}, {"smiles": "N=C(N)NCCCOc1ccc(CNc2nc3ccc(Oc4ccc(O)cc4)cc3s2)cc1", "values": [{"measurement": "IC50", "setting": "[1]", "result": 253, "unit": "µM"}, {"measurement": "IC50", "setting": "[3]", "result": 319, "unit": "µM"}]}, {"smiles": "CN(C)CCCOc1ccc(CNc2nc3ccc(Oc4cccc(C(F)(F)F)c4)cc3s2)cc1", "values": [{"measurement": "IC50", "setting": "[1]", "result": 51, "unit": "µM"}, {"measurement": "IC50", "setting": "[3]", "result": 110, "unit": "µM"}]}, {"smiles": "NCCCOc1ccc(CNc2nc3ccc(Oc4cccc(C(F)(F)F)c4)cc3s2)cc1", "values": [{"measurement": "IC50", "setting": "[1]", "result": 144, "unit": "µM"}, {"measurement": "IC50", "setting": "[3]", "result": 171, "unit": "µM"}]}, {"smiles": "CN(C)CCCOc1ccc(CN(C)c2nc3ccc(Oc4ccc(C(F)(F)F)cc4)cc3s2)cc1", "values": [{"measurement": "IC50", "setting": "[1]", "result": 46, "unit": "µM"}, {"measurement": "IC50", "setting": "[3]", "result": 54, "unit": "µM"}]}, {"smiles": "CN(Cc1ccc(OCCCNC(=N)N)cc1)c1nc2ccc(Oc3ccc(C#N)cc3)cc2s1", "values": [{"measurement": "IC50", "setting": "[1]", "result": 143, "unit": "µM"}, {"measurement": "IC50", "setting": "[3]", "result": 153, "unit": "µM"}]}, {"smiles": "O=C(CC(c1ccccc1)c1ccccc1)N1CCN(C(c2ccccc2)c2ccccc2)CC1", "note": "[Z160]", "values": [{"measurement": "IC50", "setting": "[1]", "result": 39, "unit": "µM"}, {"measurement": "IC50", "setting": "[3]", "result": 45, "unit": "µM"}]}]}
